Test results reported in patent US11498896B2 (The Broad Institute, Inc., priority 2014, dated 2022).

Tests used:
mice [1] = experiment: Amphetamine induced hyperactivity (AIH); type: in vivo; conditions: in comparison with vehicle
Procedure: Amphetamine Induced Hyperactivity Studies
Amphetamine-induced hyperactivity (AIH) was examined in eight identical open-field chambers (16.5″×16″×12″; AccuScan Instruments, Columbus, Ohio). Activity was detected by infrared beam breaks and recorded automatically by VersaMax software (AccuScan). Daily sessions were automatically binned in 5 minute intervals (VersaDat; AccuSacn) for statistical analysis. AIH was run over three consecutive days as follows:
Day 1: Mice were acclimated to the injection procedure by injecting 30 minutes prior to being placed in the chambers (to match the timing of day 3 compound administration). Mice were then placed into the open-field for 20 minutes and then removed for a saline injection (to match the timing of amphetamine administration on day 3). Mice were placed back into the open-field for an additional 30 minutes, at which point the mice were returned to their home cage.
Day 2 was run identically to Day 1, with the exception that the second day lasted for one hour (20 minutes→injection→40 minutes).
Day 3 was the amphetamine challenge day. Mice were pre-treated with D2 antagonist compounds (compound of Example 90) 30 minutes prior to being placed in the open field. After 20 minutes, mice were removed and challenged with amphetamine, following protocols known to one skilled in the art, for example Jones C. […]

striatal D2/D3 = experiment: Positron emission tomography with [11C]raclopride; type: in vivo, Male Sprague-Dawley rats; conditions: scans 1 hour after administration; in comparison with clozapine
Procedure: Positron Emission Tomography Studies on Rodents
All animal procedures were performed in accordance with the National Institutes of Health Guide for the Care and Use of Laboratory Animals and were approved by the Massachusetts General Hospital Institutional Animal Care and Use Facility. Male Sprague-Dawley rats (8-14 weeks old, Charles River Labs) were used for the study with animals pair-housed on a diurnal 12:12 light/dark cycle with free access to food and water. […] Respiration of each animal was monitored for the duration of the procedure.
Carbon 11-labeled raclopride ([^11C]RAC) was synthesized from the O-desmethyl RAC precursor and [11C] methyl iodide and subsequently purified by high-performance liquid chromatography as previously described (Farde L, et al. (1985) PNAS, USA 82(11):3863-3867). […] ROI dimensions, placement and striatal D2/D3 binding potential (BPND) were evaluated by graphical analysis using Logan distribution volume ratio (DVR) linearization as previously described (BPND.=DVR-1; Alexoff D, et al. (2002) J Nuc Med 44(5): 815-822; Logan J, et al. (1996) J Cerebral Blood Flow and Metabolism 16(5):[…]).

[2] = tested on: D2R-mediated GSK3 signaling; experiment: D2R-mediated GSK3 signaling in HEK293T cells; type: cell-based; conditions: HEK293T cells expressing both D2R and DISC1; 10 μM and 30 μM
Excerpt: Example 90 blocks β-arrestin signaling downstream of D2R and leads to modulation of GSK3 signaling.

human D2R/β-arrestin [3] = molecular target: T1, human D2R/β-arrestin (Homo sapiens (Human), UniProt P14416); experiment: cell-based; conditions: cAMP Antagonist, CHO-K1 cells expressing human D2R/β-arrestin; antagonist mode, 2.5 μM forskolin and 2.7 nM quinpirole
T1 sequence (P14416 whole entry): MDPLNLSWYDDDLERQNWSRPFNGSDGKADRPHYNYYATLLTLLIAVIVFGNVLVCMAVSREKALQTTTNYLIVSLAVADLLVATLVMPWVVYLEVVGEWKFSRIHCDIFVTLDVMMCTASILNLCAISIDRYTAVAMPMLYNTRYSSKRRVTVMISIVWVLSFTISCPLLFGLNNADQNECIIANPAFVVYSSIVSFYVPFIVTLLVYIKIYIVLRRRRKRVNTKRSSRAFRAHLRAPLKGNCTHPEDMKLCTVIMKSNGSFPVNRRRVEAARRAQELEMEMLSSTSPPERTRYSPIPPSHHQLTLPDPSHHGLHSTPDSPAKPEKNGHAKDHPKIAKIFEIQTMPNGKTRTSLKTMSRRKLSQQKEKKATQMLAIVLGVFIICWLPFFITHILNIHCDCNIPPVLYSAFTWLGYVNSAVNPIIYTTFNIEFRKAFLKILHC

D2 receptor = D2 receptor (Homo sapiens (Human), UniProt P14416); experiment: D2 radioligand binding assay
Chain of D2 receptor (P14416 whole entry): as above

Brain protein binding = type: in vitro ADME
mice [4] = experiment: Rotarod performance; type: in vivo; conditions: 30 mg/kg IP in mice
Procedure: In the test, mice are placed on a horizontally oriented, rotating cylinder (rod) suspended above a cage floor, which is low enough not to injure the animal, but high enough to induce avoidance of fall. The mice naturally try to stay on the rotating cylinder, or rotarod, and avoid falling to the ground. Mice are administered clozaril at 3 mg/kg (test group); or a compound of Formula (I) (either 10 mg/kg or 30 mg/kg or vehicle). The mice have an average weight of 20 grams (as do the mice in all examples herein). The length of time that a given animal stays on this rotating rod is a measure of the animal's balance, coordination, physical condition, and motor-planning. The speed of the rotarod is mechanically driven, and is held constant.

human D2R/β-arrestin [5] = molecular target: T1, human D2R/β-arrestin; experiment: β-arrestin agonist assay (PathHunter); type: cell-based; conditions: CHO-K1 cells expressing human D2R/β-arrestin; agonist mode
Procedure: The detection reagent (9.6 μL, Buffer:Emerald II:Galactor-Star in a 19:5:1 ratio, i.e., 14.06 mL:3.7 mL:0.74 mL=18.5 mL) was then added to the agonist plates.

CC1(Oc2ccc(Cl)cc2)CCN(CCOc2ccccc2C(F)(F)F)CC1 [Compound 90, 4-(4-Chlorophenoxy)-4-methyl-1-(2-(2-(trifluoromethyl)phenoxy)ethyl) piperidine]
attenuation of amphetamine induced hyperactivity (AIH) (mice [1]): dose-dependently attenuates AIH in mice and shows efficacy at 30 mg/kg
occupancy in the striatum ([11C]Raclopride PET) (striatal D2/D3): continued high occupancy in the striatum
block of D2R activation-induced reduction of GSK3-α/β (Ser 21/9) phosphorylation [2]: blocked
IC50 (human D2R/β-arrestin [3]): > 30 µM
Ki (D2 receptor): 0.1 to 1 µM
fraction unbound (Brain protein binding): < 0.001
motoric side effects (rotarod performance) (mice [4]): does not induce motoric side effects
EC50 (human D2R/β-arrestin [5]): 1 to 10 µM
